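Assay format: 96-well plates, 48-hour exposure. GI50: concentration for 50% inhibition of growth.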 The source made the active and inactive calls. Cut-off read from the data, not from the text of the source: active = GI50 up to about 1.1 µM and inactive = higher.
Key:
Assay in all cases: growth of human tumour cells (NCI), 48 h
ACHN = system: ACHN
SK-MEL-5 = system: SK-MEL-5
A498 = system: A498
NCI-H460 = system: NCI-H460
LOX IMVI = system: LOX IMVI
SR = system: SR
SN12C = system: SN12C
NCI/ADR-RES = system: NCI/ADR-RES
MDA-MB-231 = system: MDA-MB-231
MDA-N = system: MDA-N
MDA-MB-435 = system: MDA-MB-435
Malme-3M = system: Malme-3M
NCI-H226 = system: NCI-H226
UACC-62 = system: UACC-62
SF-268 = system: SF-268
CAKI-1 = system: CAKI-1
NCI-H23 = system: NCI-H23
SW-620 = system: SW-620
OVCAR-3 = system: OVCAR-3
HCC 2998 = system: HCC 2998

Measured: GI50

OCCNC1c2cc(Cl)ccc2-c2c(Cl)cc(Cl)cc21 (stereo not given)
inactive: ACHN 25.9 µM | SK-MEL-5 > 100 µM | A498 48 µM | NCI-H460 21.7 µM | LOX IMVI 34.5 µM | SR 20.5 µM | SN12C 25.5 µM | NCI/ADR-RES 45.9 µM | MDA-MB-231 22 µM | MDA-N 26.9 µM | MDA-MB-435 35.6 µM | Malme-3M > 100 µM | NCI-H226 > 100 µM | UACC-62 34 µM | SF-268 38.5 µM | CAKI-1 30.3 µM | NCI-H23 39.2 µM | SW-620 30.3 µM | OVCAR-3 29.8 µM | HCC 2998 35.1 µM

Nc1ccc2c(c1)CN1C(=O)c3ccccc3C1=N2 [DANIQUIDONE]
inactive: ACHN 14.7 µM | SK-MEL-5 16.8 µM | A498 43.1 µM | NCI-H460 15.5 µM | LOX IMVI 35.7 µM | SR 18.7 µM | SN12C 33.3 µM | NCI/ADR-RES 66.1 µM | MDA-MB-231 31.6 µM | MDA-N 49.4 µM | MDA-MB-435 29.2 µM | Malme-3M 67 µM | NCI-H226 45.9 µM | UACC-62 32.6 µM | SF-268 29 µM | CAKI-1 41.4 µM | NCI-H23 69 µM | SW-620 24.5 µM | OVCAR-3 40.9 µM | HCC 2998 63 µM

Reference: ChEMBL document CHEMBL1201862, “PubChem BioAssay data set” (2004)
